In patent US20170298060A1, “PYRROLOPYRIDINE RETINOIC ACID RECEPTOR-RELATED ORPHAN RECEPTOR MODULATORS AND USES THEREOF” (INNOV17 LLC, priority 2016, published 2017):

Key:
[1] = test system: IL-17F; experiment: Human TH17 cytokine inhibition as measured by ELISA (IL-17F); format: cell-based; details: 72 h; human CD4+ T cells under TH17-polarizing conditions, 3 days, supernatant ELISA, 0.1% DMSO
Experimental: (§1) Human TH17 Cytokine Inhibition as Measured by ELISA
(§2) Peripheral blood mononuclear cells (PBMCs) were sourced from freshly prepared leukocyte enriched plasma (buffy coat) from healthy donors (New York Blood Center). PBMCs were isolated by density gradient centrifugation using Ficoll-Paque™ PLUS (GE Healthcare). Human CD4+ T cells were seeded into 96-well plates (5×10^4 cells/well) and activated with plate-bound anti-human (h)-CD3 antibody and soluble h-aCD28 (both at 1 ug/ml; eBioscience) and differentiated into TH17 cells with 20 ng/mL h-IL-6, 5 ng/mL h-TGF-β1, 10 ng/mL h-IL-23 (eBioscience) and 10 ng/mL IL-1β (Miltenyi Biotec) in serum-free TexMACS Medium (Miltenyi Biotec) supplemented with 1% Penicillin/Streptomycin (Lonza) for 3 days. CD4+ T cells propagated under TH17-polarizing conditions were cultured in the presence or absence of various concentrations of compounds with a final concentration of 0.1% DMSO. Supernatants were collected and stored at −20° C. until assayed for IL-17A and IL-17F levels by “Ready-Set-Go” ELISA kits (eBioscience) as per manufacturer's instructions. Endpoint absorbance was read at 450 nm using a microplate reader (Perkin Elmer).

[2] = test system: IL-17A; experiment: Human TH17 cytokine inhibition as measured by ELISA (IL-17A); format: cell-based; details: 72 h; human CD4+ T cells under TH17-polarizing conditions, 3 days, supernatant ELISA, 0.1% DMSO
Experimental: as §1, §2

IC50 [1] | IC50 [2] | SMILES
< 10 µM | < 10 µM | O=C(c1ccccc1)N1CCC(Cn2ccc3cc(-c4cn[nH]c4)ncc32)CC1 [Example 1, (4-((5-(1H-pyrazol-4-yl)-1H-pyrrolo[2,3-c]pyridin-1-yl)methyl)piperidin-1-yl)(phenyl)methanone]
< 10 µM | < 10 µM | CC(C)CC(=O)N1CCC(Cn2ccc3cc(-c4cn[nH]c4)ncc32)CC1 [Example 3]
< 10 µM | < 10 µM | O=C(c1ccccc1F)N1CCC(Cn2ccc3cc(-c4cn[nH]c4)ncc32)CC1 [Example 4, (4-((5-(1H-pyrazol-4-yl)-1H-pyrrolo[2,3-c]pyridin-1-yl)methyl)piperidin-1-yl)(2-fluorophenyl)methanone]
< 10 µM | < 10 µM | O=S(=O)(CCc1ccccc1)N1CCC(Cn2ccc3cc(-c4cn[nH]c4)ncc32)CC1 [Example 5, 1-((1-(phenethylsulfonyl)piperidin-4-yl)methyl)-5-(1H-pyrazol-4-yl)-1H-pyrrolo[2,3-c]pyridine]
< 10 µM | < 10 µM | CC(C)CS(=O)(=O)N1CCC(Cn2ccc3cc(-c4cn[nH]c4)ncc32)CC1 [Example 6, 1-((1-(isobutylsulfonyl)piperidin-4-yl)methyl)-5-(1H-pyrazol-4-yl)-1H-pyrrolo[2,3-c]pyridine]
< 10 µM | < 10 µM | O=S(=O)(c1ccccc1)N1CCC(Cn2ccc3cc(-c4cn[nH]c4)ncc32)CC1 [Example 7, 1-((1-(phenylsulfonyl)piperidin-4-yl)methyl)-5-(1H-pyrazol-4-yl)-1H-pyrrolo[2,3-c]pyridine]
< 10 µM | < 10 µM | O=S(=O)(c1ccccc1F)N1CCC(Cn2ccc3cc(-c4cn[nH]c4)ncc32)CC1 [Example 8, 1-((1-((2-fluorophenyl)sulfonyl)piperidin-4-yl)methyl)-5-(1H-pyrazol-4-yl)-1H-pyrrolo[2,3-c]pyridine]
< 10 µM | < 10 µM | O=C(c1ccccc1)N1CCC(Cn2ccc3cc(-c4cn[nH]c4)cnc32)CC1 [Example 9, (4-((5-(1H-pyrazol-4-yl)-1H-pyrrolo[2,3-b]pyridin-1-yl)methyl)piperidin-1-yl)(phenyl)methanone]
< 10 µM | < 10 µM | O=C(CCc1ccccc1)N1CCC(Cn2ccc3cc(-c4cn[nH]c4)cnc32)CC1 [Example 10, 1-(4-((5-(1H-pyrazol-4-yl)-1H-pyrrolo[2,3-b]pyridin-1-yl)methyl)piperidin-1-yl)-3-phenylpropan-1-one]
< 10 µM | < 10 µM | CC(C)CC(=O)N1CCC(Cn2ccc3cc(-c4cn[nH]c4)cnc32)CC1 [Example 11, 1-(4-((5-(1H-pyrazol-4-yl)-1H-pyrrolo[2,3-b]pyridin-1-yl)methyl)piperidin-1-yl)-3-methylbutan-1-one]
< 10 µM | < 10 µM | O=C(c1ccccc1F)N1CCC(Cn2ccc3cc(-c4cn[nH]c4)cnc32)CC1 [Example 12, (4-((5-(1H-pyrazol-4-yl)-1H-pyrrolo[2,3-b]pyridin-1-yl)methyl)piperidin-1-yl)(2-fluorophenyl)methanone]
< 10 µM | < 10 µM | O=S(=O)(CCc1ccccc1)N1CCC(Cn2ccc3cc(-c4cn[nH]c4)cnc32)CC1 [Example 13, 1-((1-(phenethylsulfonyl)piperidin-4-yl)methyl)-5-(1H-pyrazol-4-yl)-1H-pyrrolo[2,3-b]pyridine]
< 10 µM | < 10 µM | CC(C)CS(=O)(=O)N1CCC(Cn2ccc3cc(-c4cn[nH]c4)cnc32)CC1 [Example 14, 1-((1-(isobutylsulfonyl)piperidin-4-yl)methyl)-5-(1H-pyrazol-4-yl)-1H-pyrrolo[2,3-b]pyridine]
< 10 µM | < 10 µM | O=S(=O)(c1ccccc1)N1CCC(Cn2ccc3cc(-c4cn[nH]c4)cnc32)CC1 [Example 15, 1-((1-(phenylsulfonyl)piperidin-4-yl)methyl)-5-(1H-pyrazol-4-yl)-1H-pyrrolo[2,3-b]pyridine]
< 10 µM | < 10 µM | O=S(=O)(c1ccccc1F)N1CCC(Cn2ccc3cc(-c4cn[nH]c4)cnc32)CC1 [Example 16, 1-((1-((2-fluorophenyl)sulfonyl)piperidin-4-yl)methyl)-5-(1H-pyrazol-4-yl)-1H-pyrrolo[2,3-b]pyridine]
